Literature values, collected in patent publication US20200229407A1 (priority 2017, published 2020).

Legend:
scrapie agent = details: mouse, in vivo
[1] = tested on: prion replication in neuroblastoma cells

Compound | incubation period (scrapie agent) | prion replication [1] | cell-surface PrP (cell-surface PrP)
pentosan polysulphate [PPS] | prolonged the incubation period | – | –
COc1ccc(CCN2CCC(Nc3nc4ccccc4n3Cc3ccc(F)cc3)CC2)cc1 [astemizole] | – | inhibiting prion replication | reducing cell-surface PrP
C=CC[C@@H]1/C=C(\C)C[C@H](C)C[C@H](OC)[C@H]2O[C@@](O)(C(=O)C(=O)N3CCCC[C@H]3C(=O)O[C@H](/C(C)=C/[C@@H]3CC[C@@H](O)[C@H](OC)C3)[C@H](C)[C@@H](O)CC1=O)[C@H](C)C[C@@H]2OC [tacrolimus] | – | inhibiting prion replication | reducing cell-surface PrP
